Results on twelve compounds are retold here after US10669258B2, “3-sulfonyl-5-aminopyridine-2,4-diol APJ agonists” (BRISTOL-MYERS SQUIBB COMPANY, priority 2016, dated 2020).

One experiment concerns the target T1, human APJ receptor (Homo sapiens, UniProt P35414).
T1 construct: expressed in transfected cells; host or cells: HEK293
T1 sequence (P35414 1-380): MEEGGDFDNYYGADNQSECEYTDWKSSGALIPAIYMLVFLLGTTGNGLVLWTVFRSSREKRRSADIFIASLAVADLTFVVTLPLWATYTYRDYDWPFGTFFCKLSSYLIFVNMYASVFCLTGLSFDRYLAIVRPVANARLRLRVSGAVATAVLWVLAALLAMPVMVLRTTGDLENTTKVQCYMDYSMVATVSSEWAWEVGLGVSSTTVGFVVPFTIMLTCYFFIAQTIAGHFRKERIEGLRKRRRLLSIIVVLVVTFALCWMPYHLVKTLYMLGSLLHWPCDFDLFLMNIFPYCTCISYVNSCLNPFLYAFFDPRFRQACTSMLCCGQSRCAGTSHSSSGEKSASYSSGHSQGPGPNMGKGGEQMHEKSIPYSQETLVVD
Nature of the experiment: Intracellular cAMP accumulation assay (APJ hcAMP, HTRF). The experiment is classed as cell-based. To be noted: HEK293 cells stably expressing human APJ receptor; inhibition of forskolin-mediated cAMP production; Table 1; read-out: hAPJ cAMP EC50 Potency range. On the procedure:
Intracellular cAMP Accumulation Assay
HEK293 cells stably expressing human APJ receptor were used to assess the activity of compounds. Cultured cells were detached and resuspended in the cAMP Homogeneous Time-Resolved Fluorescence (HTRF) assay buffer (Cisbio cat; #62AM4PEJ). The assay was performed in 384-well assay plates (Perkin-Elmer; cat #6008289) according to assay protocol provided by the manufacturer. Serial dilutions of a compound together with assay buffer containing […] IBMX and 2 μM forskolin were added to each well containing 5,000 cells and incubated for 30 minutes at room temperature. Subsequently, cAMP D2 reagent was added in the lysis buffer followed by the EuK antibody (Cisbio; cat #62AM4PEJ) and incubated for 60 min. The fluorescence emission ratio was measured using fluorometer. The intracellular cAMP concentrations (compound-stimulated inhibition of forskolin-mediated cAMP production) were calculated by extrapolation from a standard curve using known cAMP concentrations. The EC50 values were obtained by fitting the data to a sigmoidal concentration-response curve with variable slope. The maximal achievable inhibition of forskolin-induced cAMP levels (Ymax) for each compound was expressed as relative percentage of inhibition attained using pyroglutamated apelin-13 ((Pyr1)apelin-13) peptide, which was set to 100%.
The examples disclosed below were tested in the APJ in vitro assays described above and were found having human APJ cyclic AMP (hcAMP) activity. The EC50 value of each compound is presented at the end of the example description.
The biological activity of the exemplified compounds of this invention determined by the assay described above is shown at the end of each example.
What is called EC50 is the midpoint of the concentration-response curve. With `CCCCc1nc(O)c(S(=O)(=O)c2ccc(-c3ccccc3C(N)=O)cc2)c(O)c1N(C)c1ccccc1F` [Example 174, 4′-((6-butyl-5-((2-fluorophenyl)(methyl)a-mino)-2,4-dihydroxypyridin-3-yl)sulfonyl)-[1,1′-biphenyl]-2-carboxamide], the EC50 is 0.01 to 10 nM. On to `CCCCc1nc(O)c(S(=O)(=O)c2ccc(-c3ccccc3C(N)=O)cc2)c(O)c1N(CC)c1cccc(C#N)c1` [Example 181, 4′-((6-butyl-5-((3-cyanophenyl)(ethyl)a-mino)-2,4-dihdyroxypyridin-3-yl)sulfonyl)-[1,1′-biphenyl]-2-carboxamide], for which the EC50 fell in the range of 0.01 to 10 nM. Still for that read-out and setting: under `CCCCc1nc(O)c(S(=O)(=O)c2ccc(-c3ccc(F)nc3C)cc2)c(O)c1N(C)c1ccccc1F` [Example 118, 6-butyl-3-((4-(6-fluoro-2-methylpyridin-3-yl)phenyl)sulfonyl)-5-((2-fluorophenyl)(methyl)amino)pyridine-2,4-diol] stands 0.01 to 10 nM. As to `CCCCc1nc(O)c(S(=O)(=O)c2ccc(-c3ccccc3C(N)=O)cc2)c(O)c1N(C)c1ccccc1` [Example 065, 4′-((6-butyl-2,4-dihydroxy-5-(methyl(phenyl)amino)pyridin-3-yl)sulfonyl)-[1,1′-biphenyl]-2-carboxamide], the 50% effective concentration (EC50) fell in the range of 0.01 to 10 nM. Turning to `CCCCc1nc(O)c(S(=O)(=O)c2ccc(C3CC3)cc2)c(O)c1N(C)c1ccccc1` [Example 016, 6-butyl-3-((4-cyclopropylphenyl)sulfonyl)-5-(methyl(phenyl)amino)pyridine-2,4-diol], the EC50 lay within 0.01 to 10 nM. For `CCCCc1nc(O)c(S(=O)(=O)c2ccc(-c3cccnc3C)cc2)c(O)c1N(C)c1cccc(OC)c1` [Example 039, 6-butyl-5-((3-methoxyphenyl)(methyl)amino)-3-((4-(2-methylpyridin-3-yl)phenyl)sulfonyl)pyridine-2,4-diol], the EC50 lay within 0.01 to 10 nM. As for `CCCCc1nc(O)c(S(=O)(=O)c2ccc(-c3cccnc3C)cc2)c(O)c1N(C)c1ccccc1C` [Example 194, 6-butyl-5-(methyl(o-tolyl)amino)-3-((4-(2-methylpyridin-3-yl)phenyl)sulfonyl)pyri-dine-2,4-diol], the EC50 was in the range of 10 to 100 nM. Regarding `CNC(=O)c1ccccc1-c1ccc(S(=O)(=O)c2c(O)nc(-c3ccn(C)n3)c(N(c3ccccc3)C(C)C)c2O)cc1` [Example 158, 4′-((2,4-dihydroxy-5-(isopropyl(phen-yl)amino)-6-(1-methyl-1H-pyrazol-3-yl)pyridin-3-yl)sulfonyl)-N-methyl-[1,1′-biphenyl]-2-carboxamide], the EC50 lay in the range of 0.01 to 10 nM. For `CC(C)N(c1ccccc1)c1c(-c2ccn(C)n2)nc(O)c(S(=O)(=O)c2ccc(-c3ccccc3C(=O)N(C)C)cc2)c1O` [Example 159, 4′-((2,4-dihydroxy-5-(isopropyl(phen-yl)amino)-6-(1-methyl-1H-pyrazol-3-yl)pyridin-3-yl)sulfonyl)-N,N-dimethyl-[1,1′-biphenyl]-2-carboxamide], the EC50 was in the range of 0.01 to 10 nM. `CCN(c1ccccc1)c1c(-c2cnc(C)s2)nc(O)c(S(=O)(=O)c2ccc(-c3ccncc3C)cc2)c1O` [Example 187, 5-(ethyl(phenyl)amino)-3-((4-(3-methylpyridin-4-yl)phenyl)sulfonyl)-6-(2-methylthiazol-5-yl)pyridine-2,4-diol]: the EC50 was 0.01 to 10 nM.

The experiment is the same for the next values; noted with them: hAPJ cAMP EC50 Potency range, HEK293 cells stably expressing human APJ receptor; inhibition of forskolin-mediated cAMP production; Table 1.
The compound `CCCCc1nc(O)c(C(=O)N2CC[C@@H](c3ccccc3)C2)c(O)c1N1CCCc2ccccc21` [Example 019, (S)-(6-butyl-5-(3,4-dihydroquinolin-1(2H)-yl)-2,4-dihydroxypyridin-3-yl)(3-phenylpyrrolidin-1-yl)methanone] came in with an EC50 of 10 to 100 nM. Same read-out and setting: the figure for `CCCCc1nc(O)c(C(=O)N2CC[C@H](c3ccccc3)C2)c(O)c1N(c1ccccc1)C(C)C` [Example 023, (R)-(6-butyl-2,4-dihydroxy-5-(isopropyl(phenyl)amino)pyridin-3-yl)(3-phenylpyrrolidin-1-yl)methanone] is 10 to 100 nM.
